Activity calls are given as the source filed them.
target: Cell division cycle 7-related protein kinase (Homo sapiens, UniProt O00311)
Also: in the data inactive means no Kd found up to 30 µM.

Chain of Cell division cycle 7-related protein kinase (O00311 whole entry): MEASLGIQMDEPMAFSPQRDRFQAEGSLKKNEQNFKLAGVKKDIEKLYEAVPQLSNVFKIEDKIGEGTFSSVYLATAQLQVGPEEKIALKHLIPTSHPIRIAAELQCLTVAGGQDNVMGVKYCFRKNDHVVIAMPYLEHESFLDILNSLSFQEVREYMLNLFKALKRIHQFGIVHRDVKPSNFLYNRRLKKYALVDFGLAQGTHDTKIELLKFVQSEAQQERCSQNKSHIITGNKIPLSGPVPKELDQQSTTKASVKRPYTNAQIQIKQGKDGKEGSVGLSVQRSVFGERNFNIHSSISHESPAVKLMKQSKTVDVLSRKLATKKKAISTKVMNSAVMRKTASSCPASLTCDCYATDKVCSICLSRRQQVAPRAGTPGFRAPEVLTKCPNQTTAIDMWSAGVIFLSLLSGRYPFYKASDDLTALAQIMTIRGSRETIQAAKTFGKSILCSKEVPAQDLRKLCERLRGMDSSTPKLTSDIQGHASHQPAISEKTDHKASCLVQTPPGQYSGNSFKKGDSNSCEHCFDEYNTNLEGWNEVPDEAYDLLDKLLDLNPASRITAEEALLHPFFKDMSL

SMILES	Kd
CNC(=O)c1ccc(-c2cnc3ncc(Cc4ccc5ncccc5c4)n3n2)cc1F [CAPMATINIB]	> 30 µM (inactive)
Cc1ccc(-n2nc(C(C)(C)C)cc2NC(=O)NCc2cc(F)ccc2Oc2ccc3c(cnn3CCO)c2)cc1 [PEXMETINIB]	> 30 µM (inactive)
O=c1sn(-c2cccc3ccccc23)c(=O)n1Cc1ccccc1 [TIDEGLUSIB]	> 30 µM (inactive)

target: T1, UMP-CMP kinase (Homo sapiens, UniProt P30085)
T1 sequence (P30085 whole entry): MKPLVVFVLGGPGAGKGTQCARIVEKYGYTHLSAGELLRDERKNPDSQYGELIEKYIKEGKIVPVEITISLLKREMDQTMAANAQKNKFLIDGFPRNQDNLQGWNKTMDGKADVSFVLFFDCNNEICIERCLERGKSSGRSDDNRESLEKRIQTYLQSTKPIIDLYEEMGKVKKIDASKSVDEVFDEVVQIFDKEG

SMILES	Kd
Cc1cc([C@@H](C)Nc2ccccc2C(=O)O)c2nc(N3CCOCC3)cc(=O)n2c1 [AZD-6482]	> 30 µM (inactive)
COc1ccc(-c2ccc3c(N4CCOC[C@@H]4C)nc(N4CCOC[C@@H]4C)nc3n2)cc1CO [AZD-8055]	> 30 µM (inactive)
Cc1ccc(-n2nc(C(C)(C)C)cc2NC(=O)NCc2cc(F)ccc2Oc2ccc3c(cnn3CCO)c2)cc1 [PEXMETINIB]	> 30 µM (inactive)

target: T2, Ephrin type-A receptor 1 (Homo sapiens, UniProt P21709)
T2 sequence (P21709 whole entry): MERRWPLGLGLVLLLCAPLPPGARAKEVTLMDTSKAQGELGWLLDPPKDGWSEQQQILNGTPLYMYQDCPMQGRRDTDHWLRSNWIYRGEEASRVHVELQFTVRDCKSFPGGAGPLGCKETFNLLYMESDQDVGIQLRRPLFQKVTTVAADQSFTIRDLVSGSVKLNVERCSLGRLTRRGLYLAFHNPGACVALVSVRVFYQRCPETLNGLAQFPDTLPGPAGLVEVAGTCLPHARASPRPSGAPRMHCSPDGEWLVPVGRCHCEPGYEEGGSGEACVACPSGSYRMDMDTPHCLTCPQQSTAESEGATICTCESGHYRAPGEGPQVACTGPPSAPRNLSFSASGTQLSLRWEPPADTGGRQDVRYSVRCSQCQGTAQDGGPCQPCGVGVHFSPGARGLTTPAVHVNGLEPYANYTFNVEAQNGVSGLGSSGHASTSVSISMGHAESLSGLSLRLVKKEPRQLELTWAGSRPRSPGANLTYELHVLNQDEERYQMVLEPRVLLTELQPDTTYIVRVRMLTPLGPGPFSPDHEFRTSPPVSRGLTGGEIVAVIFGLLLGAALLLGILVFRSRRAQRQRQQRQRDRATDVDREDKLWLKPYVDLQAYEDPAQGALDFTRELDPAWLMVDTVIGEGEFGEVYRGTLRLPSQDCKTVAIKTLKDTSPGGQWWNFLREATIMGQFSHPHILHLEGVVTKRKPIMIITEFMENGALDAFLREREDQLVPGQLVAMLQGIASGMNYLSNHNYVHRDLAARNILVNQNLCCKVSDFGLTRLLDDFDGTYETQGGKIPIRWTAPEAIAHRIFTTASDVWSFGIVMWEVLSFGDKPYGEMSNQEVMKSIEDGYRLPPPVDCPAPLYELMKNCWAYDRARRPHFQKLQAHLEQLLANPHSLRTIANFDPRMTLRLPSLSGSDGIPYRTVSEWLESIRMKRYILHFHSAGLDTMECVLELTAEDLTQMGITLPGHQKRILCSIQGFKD

SMILES	Kd
Cc1cc([C@@H](C)Nc2ccccc2C(=O)O)c2nc(N3CCOCC3)cc(=O)n2c1 [AZD-6482]	> 30 µM (inactive)
COc1ccc(-c2ccc3c(N4CCOC[C@@H]4C)nc(N4CCOC[C@@H]4C)nc3n2)cc1CO [AZD-8055]	> 30 µM (inactive)
CNC(=O)c1ccc(-c2cnc3ncc(Cc4ccc5ncccc5c4)n3n2)cc1F [CAPMATINIB]	> 30 µM (inactive)
Cc1ccc(-n2nc(C(C)(C)C)cc2NC(=O)NCc2cc(F)ccc2Oc2ccc3c(cnn3CCO)c2)cc1 [PEXMETINIB]	2.64 µM (active)
O=c1sn(-c2cccc3ccccc23)c(=O)n1Cc1ccccc1 [TIDEGLUSIB]	> 30 µM (inactive)

target: Ephrin type-A receptor 7 (Homo sapiens, UniProt Q15375)
Sequence (Q15375 whole entry): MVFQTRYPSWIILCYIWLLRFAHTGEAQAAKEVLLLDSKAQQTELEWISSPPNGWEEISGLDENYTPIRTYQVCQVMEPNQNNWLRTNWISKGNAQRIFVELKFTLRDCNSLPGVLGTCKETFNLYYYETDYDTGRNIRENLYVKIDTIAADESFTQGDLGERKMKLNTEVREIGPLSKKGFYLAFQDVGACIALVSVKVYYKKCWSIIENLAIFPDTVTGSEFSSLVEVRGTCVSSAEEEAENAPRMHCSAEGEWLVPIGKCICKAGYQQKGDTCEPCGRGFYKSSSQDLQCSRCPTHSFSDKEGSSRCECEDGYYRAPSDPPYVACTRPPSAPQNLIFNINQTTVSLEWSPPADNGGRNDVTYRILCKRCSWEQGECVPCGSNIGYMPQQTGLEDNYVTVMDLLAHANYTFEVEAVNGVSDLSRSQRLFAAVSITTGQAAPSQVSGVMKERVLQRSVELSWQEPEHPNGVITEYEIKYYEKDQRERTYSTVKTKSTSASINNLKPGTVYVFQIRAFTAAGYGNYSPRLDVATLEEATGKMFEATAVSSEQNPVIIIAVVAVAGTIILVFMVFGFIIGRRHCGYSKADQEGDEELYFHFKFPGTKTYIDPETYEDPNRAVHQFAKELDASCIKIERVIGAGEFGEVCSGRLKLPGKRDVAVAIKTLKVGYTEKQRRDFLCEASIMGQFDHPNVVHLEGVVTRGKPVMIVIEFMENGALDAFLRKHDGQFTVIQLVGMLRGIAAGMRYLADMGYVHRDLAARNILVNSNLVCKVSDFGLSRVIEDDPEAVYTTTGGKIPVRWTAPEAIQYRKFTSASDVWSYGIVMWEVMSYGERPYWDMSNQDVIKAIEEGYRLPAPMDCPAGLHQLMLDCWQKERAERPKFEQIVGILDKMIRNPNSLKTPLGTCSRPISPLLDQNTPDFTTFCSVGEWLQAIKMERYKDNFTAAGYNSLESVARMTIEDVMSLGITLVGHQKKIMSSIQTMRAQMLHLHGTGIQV

SMILES	Kd
Cc1cc([C@@H](C)Nc2ccccc2C(=O)O)c2nc(N3CCOCC3)cc(=O)n2c1 [AZD-6482]	> 30 µM (inactive)
COc1ccc(-c2ccc3c(N4CCOC[C@@H]4C)nc(N4CCOC[C@@H]4C)nc3n2)cc1CO [AZD-8055]	> 30 µM (inactive)
CNC(=O)c1ccc(-c2cnc3ncc(Cc4ccc5ncccc5c4)n3n2)cc1F [CAPMATINIB]	> 30 µM (inactive)
Cc1ccc(-n2nc(C(C)(C)C)cc2NC(=O)NCc2cc(F)ccc2Oc2ccc3c(cnn3CCO)c2)cc1 [PEXMETINIB]	3.31 µM (active)
O=c1sn(-c2cccc3ccccc23)c(=O)n1Cc1ccccc1 [TIDEGLUSIB]	> 30 µM (inactive)

target: T3, Inhibitor of nuclear factor kappa-B kinase subunit epsilon (Homo sapiens, UniProt Q14164)
T3 sequence (Q14164 whole entry): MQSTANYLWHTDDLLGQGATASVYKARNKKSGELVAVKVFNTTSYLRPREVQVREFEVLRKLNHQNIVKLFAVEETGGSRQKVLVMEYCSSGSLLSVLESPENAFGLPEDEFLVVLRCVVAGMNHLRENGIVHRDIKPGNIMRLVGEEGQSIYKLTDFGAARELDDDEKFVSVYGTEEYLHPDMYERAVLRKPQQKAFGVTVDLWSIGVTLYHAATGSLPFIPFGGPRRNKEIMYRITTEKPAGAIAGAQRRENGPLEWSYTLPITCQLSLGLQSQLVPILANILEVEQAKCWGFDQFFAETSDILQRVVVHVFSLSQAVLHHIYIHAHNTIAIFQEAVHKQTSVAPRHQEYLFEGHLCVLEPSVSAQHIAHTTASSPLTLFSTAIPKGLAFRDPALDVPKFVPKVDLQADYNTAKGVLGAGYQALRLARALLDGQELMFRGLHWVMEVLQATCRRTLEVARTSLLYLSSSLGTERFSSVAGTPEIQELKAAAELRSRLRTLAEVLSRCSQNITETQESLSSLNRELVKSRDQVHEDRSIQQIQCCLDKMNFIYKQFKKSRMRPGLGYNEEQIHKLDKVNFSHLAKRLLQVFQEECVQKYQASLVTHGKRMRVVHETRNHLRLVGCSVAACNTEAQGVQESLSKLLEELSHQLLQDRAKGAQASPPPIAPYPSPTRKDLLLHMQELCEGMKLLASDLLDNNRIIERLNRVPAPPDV

SMILES	Kd
Cc1cc([C@@H](C)Nc2ccccc2C(=O)O)c2nc(N3CCOCC3)cc(=O)n2c1 [AZD-6482]	> 30 µM (inactive)
COc1ccc(-c2ccc3c(N4CCOC[C@@H]4C)nc(N4CCOC[C@@H]4C)nc3n2)cc1CO [AZD-8055]	> 30 µM (inactive)
CNC(=O)c1ccc(-c2cnc3ncc(Cc4ccc5ncccc5c4)n3n2)cc1F [CAPMATINIB]	> 30 µM (inactive)
Cc1ccc(-n2nc(C(C)(C)C)cc2NC(=O)NCc2cc(F)ccc2Oc2ccc3c(cnn3CCO)c2)cc1 [PEXMETINIB]	> 30 µM (inactive)
O=c1sn(-c2cccc3ccccc23)c(=O)n1Cc1ccccc1 [TIDEGLUSIB]	> 30 µM (inactive)

target: Hepatocyte growth factor receptor (Homo sapiens, UniProt P08581)
Sequence (P08581 whole entry): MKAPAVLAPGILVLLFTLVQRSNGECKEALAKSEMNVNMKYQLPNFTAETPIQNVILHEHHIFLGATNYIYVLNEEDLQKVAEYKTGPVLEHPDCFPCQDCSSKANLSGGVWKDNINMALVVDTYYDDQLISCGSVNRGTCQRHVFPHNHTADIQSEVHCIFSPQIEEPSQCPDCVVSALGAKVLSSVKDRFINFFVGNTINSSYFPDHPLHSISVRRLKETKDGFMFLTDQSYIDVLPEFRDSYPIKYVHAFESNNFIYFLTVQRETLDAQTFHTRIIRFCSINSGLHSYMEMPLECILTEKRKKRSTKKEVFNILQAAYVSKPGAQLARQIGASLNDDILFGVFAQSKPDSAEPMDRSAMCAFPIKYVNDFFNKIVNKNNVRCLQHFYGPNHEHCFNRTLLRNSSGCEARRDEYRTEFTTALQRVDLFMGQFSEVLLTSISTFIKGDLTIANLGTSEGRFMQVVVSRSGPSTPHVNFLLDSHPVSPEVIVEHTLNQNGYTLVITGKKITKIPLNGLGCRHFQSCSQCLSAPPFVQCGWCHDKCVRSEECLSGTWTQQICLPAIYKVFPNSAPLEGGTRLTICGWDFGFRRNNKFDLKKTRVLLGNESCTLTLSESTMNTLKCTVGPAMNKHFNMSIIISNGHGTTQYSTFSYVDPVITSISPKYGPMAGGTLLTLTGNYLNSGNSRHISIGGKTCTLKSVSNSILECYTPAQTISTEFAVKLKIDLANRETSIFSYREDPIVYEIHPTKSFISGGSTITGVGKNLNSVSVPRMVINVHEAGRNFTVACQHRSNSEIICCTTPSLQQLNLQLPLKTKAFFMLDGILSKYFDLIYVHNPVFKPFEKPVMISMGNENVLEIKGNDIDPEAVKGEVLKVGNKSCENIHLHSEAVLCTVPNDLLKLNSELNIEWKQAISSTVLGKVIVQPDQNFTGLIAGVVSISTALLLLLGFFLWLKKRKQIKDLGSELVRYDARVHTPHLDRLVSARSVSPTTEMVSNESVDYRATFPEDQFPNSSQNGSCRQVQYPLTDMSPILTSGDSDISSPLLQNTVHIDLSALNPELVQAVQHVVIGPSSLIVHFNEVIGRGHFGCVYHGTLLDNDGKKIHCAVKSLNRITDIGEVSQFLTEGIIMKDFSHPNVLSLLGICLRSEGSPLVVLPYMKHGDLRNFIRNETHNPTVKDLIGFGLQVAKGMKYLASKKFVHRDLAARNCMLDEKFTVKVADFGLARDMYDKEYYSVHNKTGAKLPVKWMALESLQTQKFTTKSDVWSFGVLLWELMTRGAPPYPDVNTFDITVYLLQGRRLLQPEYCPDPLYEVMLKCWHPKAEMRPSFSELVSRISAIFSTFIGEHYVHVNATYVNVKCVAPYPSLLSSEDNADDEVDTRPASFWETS

SMILES	Kd
Cc1cc([C@@H](C)Nc2ccccc2C(=O)O)c2nc(N3CCOCC3)cc(=O)n2c1 [AZD-6482]	> 30 µM (inactive)
COc1ccc(-c2ccc3c(N4CCOC[C@@H]4C)nc(N4CCOC[C@@H]4C)nc3n2)cc1CO [AZD-8055]	> 30 µM (inactive)
Cc1ccc(-n2nc(C(C)(C)C)cc2NC(=O)NCc2cc(F)ccc2Oc2ccc3c(cnn3CCO)c2)cc1 [PEXMETINIB]	> 30 µM (inactive)

target: High affinity nerve growth factor receptor (Homo sapiens, UniProt P04629)

SMILES	Kd
Cc1cc([C@@H](C)Nc2ccccc2C(=O)O)c2nc(N3CCOCC3)cc(=O)n2c1 [AZD-6482]	> 30 µM (inactive)
COc1ccc(-c2ccc3c(N4CCOC[C@@H]4C)nc(N4CCOC[C@@H]4C)nc3n2)cc1CO [AZD-8055]	> 30 µM (inactive)
CNC(=O)c1ccc(-c2cnc3ncc(Cc4ccc5ncccc5c4)n3n2)cc1F [CAPMATINIB]	> 30 µM (inactive)
Cc1ccc(-n2nc(C(C)(C)C)cc2NC(=O)NCc2cc(F)ccc2Oc2ccc3c(cnn3CCO)c2)cc1 [PEXMETINIB]	3.13 µM (active)
O=c1sn(-c2cccc3ccccc23)c(=O)n1Cc1ccccc1 [TIDEGLUSIB]	> 30 µM (inactive)

target: Serine/threonine-protein kinase PAK 6 (Homo sapiens, UniProt Q9NQU5)

SMILES	Kd
Cc1cc([C@@H](C)Nc2ccccc2C(=O)O)c2nc(N3CCOCC3)cc(=O)n2c1 [AZD-6482]	> 30 µM (inactive)
COc1ccc(-c2ccc3c(N4CCOC[C@@H]4C)nc(N4CCOC[C@@H]4C)nc3n2)cc1CO [AZD-8055]	> 30 µM (inactive)
CNC(=O)c1ccc(-c2cnc3ncc(Cc4ccc5ncccc5c4)n3n2)cc1F [CAPMATINIB]	> 30 µM (inactive)
Cc1ccc(-n2nc(C(C)(C)C)cc2NC(=O)NCc2cc(F)ccc2Oc2ccc3c(cnn3CCO)c2)cc1 [PEXMETINIB]	> 30 µM (inactive)
O=c1sn(-c2cccc3ccccc23)c(=O)n1Cc1ccccc1 [TIDEGLUSIB]	> 30 µM (inactive)

target: Membrane-associated progesterone receptor component 1 (Homo sapiens, UniProt O00264)
Sequence (O00264 whole entry): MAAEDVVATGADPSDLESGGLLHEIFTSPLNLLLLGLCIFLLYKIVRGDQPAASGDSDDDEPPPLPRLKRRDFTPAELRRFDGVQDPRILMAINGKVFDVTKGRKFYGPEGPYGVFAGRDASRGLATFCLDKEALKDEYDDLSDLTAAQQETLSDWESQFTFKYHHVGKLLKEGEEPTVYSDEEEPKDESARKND

SMILES	Kd
Cc1cc([C@@H](C)Nc2ccccc2C(=O)O)c2nc(N3CCOCC3)cc(=O)n2c1 [AZD-6482]	> 30 µM (inactive)
COc1ccc(-c2ccc3c(N4CCOC[C@@H]4C)nc(N4CCOC[C@@H]4C)nc3n2)cc1CO [AZD-8055]	> 30 µM (inactive)
Cc1ccc(-n2nc(C(C)(C)C)cc2NC(=O)NCc2cc(F)ccc2Oc2ccc3c(cnn3CCO)c2)cc1 [PEXMETINIB]	> 30 µM (inactive)
O=c1sn(-c2cccc3ccccc23)c(=O)n1Cc1ccccc1 [TIDEGLUSIB]	> 30 µM (inactive)

target: Serine/threonine-protein kinase pim-2 (Homo sapiens, UniProt Q9P1W9)
Sequence (Q9P1W9 whole entry): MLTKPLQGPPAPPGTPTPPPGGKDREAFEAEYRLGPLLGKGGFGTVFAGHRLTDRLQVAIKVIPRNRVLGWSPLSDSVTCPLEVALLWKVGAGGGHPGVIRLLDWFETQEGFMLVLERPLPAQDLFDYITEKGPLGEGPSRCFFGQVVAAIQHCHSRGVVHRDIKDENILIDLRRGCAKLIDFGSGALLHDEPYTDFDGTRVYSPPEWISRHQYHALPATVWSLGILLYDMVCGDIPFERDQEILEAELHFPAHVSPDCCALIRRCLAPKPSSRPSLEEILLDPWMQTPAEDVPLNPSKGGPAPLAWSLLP

SMILES	Kd
COc1ccc(-c2ccc3c(N4CCOC[C@@H]4C)nc(N4CCOC[C@@H]4C)nc3n2)cc1CO [AZD-8055]	> 30 µM (inactive)
CNC(=O)c1ccc(-c2cnc3ncc(Cc4ccc5ncccc5c4)n3n2)cc1F [CAPMATINIB]	> 30 µM (inactive)
Cc1ccc(-n2nc(C(C)(C)C)cc2NC(=O)NCc2cc(F)ccc2Oc2ccc3c(cnn3CCO)c2)cc1 [PEXMETINIB]	> 30 µM (inactive)

target: Serine/threonine-protein kinase 38-like (Homo sapiens, UniProt Q9Y2H1)
Sequence (Q9Y2H1 whole entry): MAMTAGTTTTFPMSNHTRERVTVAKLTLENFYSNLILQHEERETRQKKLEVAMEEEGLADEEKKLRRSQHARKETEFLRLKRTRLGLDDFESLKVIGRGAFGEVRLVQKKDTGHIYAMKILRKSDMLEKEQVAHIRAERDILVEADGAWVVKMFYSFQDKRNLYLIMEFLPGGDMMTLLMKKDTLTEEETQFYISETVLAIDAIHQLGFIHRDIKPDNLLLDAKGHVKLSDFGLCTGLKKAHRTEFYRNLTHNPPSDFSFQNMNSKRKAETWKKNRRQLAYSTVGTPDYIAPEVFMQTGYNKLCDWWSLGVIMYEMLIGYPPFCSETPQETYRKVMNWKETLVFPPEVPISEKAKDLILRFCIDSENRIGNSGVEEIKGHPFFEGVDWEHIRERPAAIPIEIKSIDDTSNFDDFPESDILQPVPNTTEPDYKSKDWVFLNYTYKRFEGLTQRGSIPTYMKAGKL

SMILES	Kd
Cc1cc([C@@H](C)Nc2ccccc2C(=O)O)c2nc(N3CCOCC3)cc(=O)n2c1 [AZD-6482]	> 30 µM (inactive)
COc1ccc(-c2ccc3c(N4CCOC[C@@H]4C)nc(N4CCOC[C@@H]4C)nc3n2)cc1CO [AZD-8055]	> 30 µM (inactive)
Cc1ccc(-n2nc(C(C)(C)C)cc2NC(=O)NCc2cc(F)ccc2Oc2ccc3c(cnn3CCO)c2)cc1 [PEXMETINIB]	> 30 µM (inactive)
O=c1sn(-c2cccc3ccccc23)c(=O)n1Cc1ccccc1 [TIDEGLUSIB]	> 30 µM (inactive)

target: Dual specificity testis-specific protein kinase 1 (Homo sapiens, UniProt Q15569)
Sequence (Q15569 whole entry): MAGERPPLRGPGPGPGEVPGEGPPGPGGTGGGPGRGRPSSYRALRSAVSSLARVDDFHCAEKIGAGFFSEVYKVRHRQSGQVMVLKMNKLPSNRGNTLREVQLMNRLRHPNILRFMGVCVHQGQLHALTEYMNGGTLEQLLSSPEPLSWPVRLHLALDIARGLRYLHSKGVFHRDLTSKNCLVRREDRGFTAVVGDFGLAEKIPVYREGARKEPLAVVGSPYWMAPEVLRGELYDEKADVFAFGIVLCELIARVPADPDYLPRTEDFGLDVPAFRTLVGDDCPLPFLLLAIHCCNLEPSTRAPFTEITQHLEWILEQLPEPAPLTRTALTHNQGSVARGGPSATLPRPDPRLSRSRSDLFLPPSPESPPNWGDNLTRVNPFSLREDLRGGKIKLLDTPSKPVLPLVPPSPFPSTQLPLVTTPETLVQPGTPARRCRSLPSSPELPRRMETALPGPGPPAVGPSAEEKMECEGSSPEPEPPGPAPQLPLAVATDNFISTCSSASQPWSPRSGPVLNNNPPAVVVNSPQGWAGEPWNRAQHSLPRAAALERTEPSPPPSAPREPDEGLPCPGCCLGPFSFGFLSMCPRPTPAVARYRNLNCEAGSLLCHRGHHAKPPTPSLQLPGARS

SMILES	Kd
Cc1cc([C@@H](C)Nc2ccccc2C(=O)O)c2nc(N3CCOCC3)cc(=O)n2c1 [AZD-6482]	> 30 µM (inactive)
COc1ccc(-c2ccc3c(N4CCOC[C@@H]4C)nc(N4CCOC[C@@H]4C)nc3n2)cc1CO [AZD-8055]	> 30 µM (inactive)
CNC(=O)c1ccc(-c2cnc3ncc(Cc4ccc5ncccc5c4)n3n2)cc1F [CAPMATINIB]	> 30 µM (inactive)
Cc1ccc(-n2nc(C(C)(C)C)cc2NC(=O)NCc2cc(F)ccc2Oc2ccc3c(cnn3CCO)c2)cc1 [PEXMETINIB]	> 30 µM (inactive)
O=c1sn(-c2cccc3ccccc23)c(=O)n1Cc1ccccc1 [TIDEGLUSIB]	> 30 µM (inactive)

Reference: ChEMBL document CHEMBL3991601, “The target landscape of clinical kinase drugs” (Science, 2017)
